These compounds were tested against T1, Muscarinic acetylcholine receptor M1 (Homo sapiens, UniProt P11229) (assay: Antagonist activity at human recombinant muscarinic receptor M1 expressed in CHO-K1 cells assessed as EC80 acetylcholine-induced calcium flux incubated for 30 mins).
T1 sequence (P11229 whole entry): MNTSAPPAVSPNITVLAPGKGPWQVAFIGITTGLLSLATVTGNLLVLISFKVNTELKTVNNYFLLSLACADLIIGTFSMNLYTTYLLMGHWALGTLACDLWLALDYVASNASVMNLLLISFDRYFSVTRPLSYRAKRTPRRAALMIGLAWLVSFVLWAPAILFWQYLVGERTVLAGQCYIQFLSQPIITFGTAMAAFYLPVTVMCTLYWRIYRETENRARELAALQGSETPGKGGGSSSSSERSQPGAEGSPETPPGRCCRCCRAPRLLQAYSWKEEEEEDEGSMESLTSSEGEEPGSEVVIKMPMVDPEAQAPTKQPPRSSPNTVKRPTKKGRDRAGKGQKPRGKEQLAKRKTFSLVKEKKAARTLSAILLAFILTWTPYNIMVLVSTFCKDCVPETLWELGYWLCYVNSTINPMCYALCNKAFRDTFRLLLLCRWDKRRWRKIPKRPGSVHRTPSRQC

**Q.** Which IC50 does the source give for Cc1cc(F)cnc1N1CCN(C(=O)COCc2cccc3ncsc23)[C@@H](C)C1 here?
**A.** 3.98 µM

**Q.** Cc1cc(F)cnc1N1CCN(C(=O)CCS(=O)(=O)c2cccc3ncsc23)[C@@H](C)C1 was tested. Which IC50 did it give?
**A.** 0.0794 µM

**Q.** How did the IC50 turn out when N#Cc1ccc(N2CC3CCC2CN3C(=O)CCS(=O)(=O)c2cccc3ncsc23)nc1 (stereo not given) was run?
**A.** 0.032 µM

**Q.** Which IC50 does the source give for N#Cc1cnccc1N1CCN(C(=O)CCCc2cccc3ncccc23)CC1 here?
**A.** 1.25 µM

**Q.** For N#Cc1ccc(N2C3CCC2CN(C(=O)CCS(=O)(=O)c2cccc4ncsc24)C3)nc1, which IC50 is on record?
**A.** 0.0016 µM

From BindingDB's records for doi:10.1021/acsmedchemlett.0c00626 (Pipeline Therapeutics, 2021)
